Consider 28 compounds from the Kinase Knowledgebase extract (Sharma et al. 2016).

Several values for one entry are separate records, joined by “and”; a condition that tells them apart may be missing. Equal entries are not always repeated.

The target in one assay is MAPK14 (UniProt Q16539). Briefly: p38-alpha 2 Inhibition.
The target in assay [1] is EGFR (mouse) (UniProt P00533). Conditions: swiss 3t3 fibroblast.
Assay [2] addresses EGFR (mouse) (UniProt P00533). The following applies: nih3t3/c7.
Assay [3] concerns the target EGFR (UniProt P00533).
Assay [4] deals with CDK2 (human) (UniProt P24941). Briefly: Enzyme Assay.
Assay [5] concerns the target CDK2 (human) (UniProt P24941). As to the kind of experiment: Enzyme Assay. This is another data set of the same source.
Another assay concerns the target PIK3CA (UniProt P42336). As to the kind of experiment: PIK3CA Inhibition.
Assay [6] deals with EGFR (UniProt P00533). The source holds these as a separate data set.
The target in assay [7] is EGFR (human) (UniProt P00533).
For assay [8], the target named is MAPK14 (human) (UniProt Q16539). As to the kind of experiment: Enzyme Assay.
Assay [9] concerns the target EGFR (human) (UniProt P00533). The source holds these as a separate data set.
For assay [10], the target named is EGFR (UniProt P00533). The source holds these as a separate data set.
Assay [11] addresses EGFR (UniProt P00533). The source holds these as a separate data set.
Assay [12] deals with EGFR (human) (UniProt P00533). Conditions: a431.
Assay [13] has as its target EGFR (human) (UniProt P00533). The source holds these as a separate data set.
Assay [14] deals with EGFR (human) (UniProt P00533). Conditions: a431. This is another data set of the same source.
The target in assay [15] is EGFR (human) (UniProt P00533). The following applies: a549.
Assay [16] addresses EGFR (human) (UniProt P00533). The source holds these as a separate data set.
The target of assay [17] is EGFR (human), P00533 [WT].
In assay [18] the target is EGFR (human) (UniProt P00533). The source holds these as a separate data set.
For assay [19], the target named is EGFR (human) (UniProt P00533). Conditions: a431. The source holds these as a separate data set.
The target of assay [20] is MAPK14 (human) (UniProt Q16539). Briefly: Enzyme Assay. The source holds these as a separate data set.
Assay [21] deals with EGFR (UniProt P00533). This is another data set of the same source.
For assay [22], the target named is CDK2 (UniProt P24941). Briefly: Enzyme Assay.
Assay [23] concerns the target CDK2 (UniProt P24941). As to the kind of experiment: Enzyme Assay. This is another data set of the same source.
For assay [24], the target named is EGFR (UniProt P00533). This is another data set of the same source.
Assay [25] concerns the target EGFR (human) (UniProt P00533). This is another data set of the same source.
Assay [26] concerns the target MAPK14 (human) (UniProt Q16539). Briefly: p38 --- TNF Inhibition (PBMC cells).
Assay [27] has the same target. Briefly: p38 --- IL-1 Inhibition (PBMC cells).

Chain of MAPK14 (human) (Q16539 whole entry, looked up): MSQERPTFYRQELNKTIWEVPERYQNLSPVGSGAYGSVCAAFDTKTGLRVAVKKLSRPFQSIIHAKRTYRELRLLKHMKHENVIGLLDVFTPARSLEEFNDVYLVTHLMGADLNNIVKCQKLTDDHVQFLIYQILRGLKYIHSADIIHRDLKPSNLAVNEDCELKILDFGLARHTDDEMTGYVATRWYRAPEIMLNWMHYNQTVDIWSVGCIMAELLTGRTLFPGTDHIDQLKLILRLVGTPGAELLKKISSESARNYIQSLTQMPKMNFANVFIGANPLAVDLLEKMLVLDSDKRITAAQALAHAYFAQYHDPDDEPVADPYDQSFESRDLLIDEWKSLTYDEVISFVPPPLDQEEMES
Chain of EGFR (P00533 whole entry, looked up): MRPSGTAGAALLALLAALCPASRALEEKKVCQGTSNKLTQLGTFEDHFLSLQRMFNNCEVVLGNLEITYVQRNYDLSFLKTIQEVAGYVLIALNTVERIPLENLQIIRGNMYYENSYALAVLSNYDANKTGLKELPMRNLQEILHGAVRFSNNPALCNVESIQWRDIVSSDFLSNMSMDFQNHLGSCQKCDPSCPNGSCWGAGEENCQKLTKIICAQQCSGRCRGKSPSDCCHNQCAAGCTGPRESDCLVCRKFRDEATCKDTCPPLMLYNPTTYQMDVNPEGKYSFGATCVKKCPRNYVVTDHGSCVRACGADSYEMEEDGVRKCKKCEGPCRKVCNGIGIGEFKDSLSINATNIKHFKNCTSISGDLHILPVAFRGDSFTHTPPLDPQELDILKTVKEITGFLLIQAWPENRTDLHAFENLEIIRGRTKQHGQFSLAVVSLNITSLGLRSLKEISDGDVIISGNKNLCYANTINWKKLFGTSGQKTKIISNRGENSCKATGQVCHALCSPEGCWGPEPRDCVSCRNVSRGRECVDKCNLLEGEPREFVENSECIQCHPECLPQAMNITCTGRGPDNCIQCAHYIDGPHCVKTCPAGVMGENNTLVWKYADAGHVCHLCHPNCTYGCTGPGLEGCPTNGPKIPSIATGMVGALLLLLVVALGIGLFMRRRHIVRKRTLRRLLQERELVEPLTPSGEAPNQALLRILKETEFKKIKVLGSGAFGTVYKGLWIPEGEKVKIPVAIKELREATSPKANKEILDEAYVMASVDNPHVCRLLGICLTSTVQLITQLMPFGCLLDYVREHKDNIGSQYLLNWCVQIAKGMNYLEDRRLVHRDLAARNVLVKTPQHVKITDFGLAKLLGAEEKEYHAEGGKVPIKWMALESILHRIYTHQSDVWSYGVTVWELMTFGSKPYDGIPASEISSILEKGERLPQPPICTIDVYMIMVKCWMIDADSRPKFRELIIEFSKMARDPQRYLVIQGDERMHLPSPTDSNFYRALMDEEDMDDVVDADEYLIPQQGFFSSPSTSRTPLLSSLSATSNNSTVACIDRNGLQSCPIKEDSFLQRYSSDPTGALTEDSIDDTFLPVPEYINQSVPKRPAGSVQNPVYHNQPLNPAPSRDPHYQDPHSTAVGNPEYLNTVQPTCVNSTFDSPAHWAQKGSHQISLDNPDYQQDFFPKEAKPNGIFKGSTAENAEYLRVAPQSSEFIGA
Chain of EGFR (human) (P00533 whole entry, looked up): as above
Chain of MAPK14 (Q16539 whole entry, looked up): as the sequence (Q16539 whole entry, looked up) above
Chain of PIK3CA (P42336 whole entry, looked up): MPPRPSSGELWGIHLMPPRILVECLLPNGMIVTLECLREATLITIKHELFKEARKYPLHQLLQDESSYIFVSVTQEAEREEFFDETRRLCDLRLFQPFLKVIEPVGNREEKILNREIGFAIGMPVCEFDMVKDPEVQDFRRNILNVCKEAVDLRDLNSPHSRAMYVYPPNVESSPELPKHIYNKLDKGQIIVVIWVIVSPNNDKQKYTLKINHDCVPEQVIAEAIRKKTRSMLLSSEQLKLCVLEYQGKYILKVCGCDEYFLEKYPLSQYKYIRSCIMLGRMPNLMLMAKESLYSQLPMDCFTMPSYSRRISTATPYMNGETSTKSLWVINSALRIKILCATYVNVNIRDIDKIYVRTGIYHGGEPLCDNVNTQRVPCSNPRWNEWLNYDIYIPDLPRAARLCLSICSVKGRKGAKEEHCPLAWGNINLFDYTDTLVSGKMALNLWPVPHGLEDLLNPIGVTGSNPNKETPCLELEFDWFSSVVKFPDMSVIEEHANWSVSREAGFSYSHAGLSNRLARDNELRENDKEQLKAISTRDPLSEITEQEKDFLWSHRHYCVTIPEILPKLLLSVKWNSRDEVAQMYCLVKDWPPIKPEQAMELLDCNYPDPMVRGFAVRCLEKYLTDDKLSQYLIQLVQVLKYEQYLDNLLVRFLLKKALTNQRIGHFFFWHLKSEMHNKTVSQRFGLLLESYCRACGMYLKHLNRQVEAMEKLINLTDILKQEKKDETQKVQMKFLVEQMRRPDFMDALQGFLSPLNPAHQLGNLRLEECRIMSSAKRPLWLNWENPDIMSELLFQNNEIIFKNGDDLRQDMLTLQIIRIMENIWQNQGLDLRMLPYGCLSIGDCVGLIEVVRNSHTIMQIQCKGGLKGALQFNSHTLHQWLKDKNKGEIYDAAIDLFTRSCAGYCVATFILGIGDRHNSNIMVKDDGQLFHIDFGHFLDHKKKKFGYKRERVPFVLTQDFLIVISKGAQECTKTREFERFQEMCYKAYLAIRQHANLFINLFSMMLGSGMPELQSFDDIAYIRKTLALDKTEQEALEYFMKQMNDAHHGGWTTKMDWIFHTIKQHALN
Chain of EGFR (human), P00533 [WT] (P00533 whole entry, looked up): as the sequence (P00533 whole entry, looked up) above

As usually defined, the inhibition is the share of the control response that was lost under treatment. A higher inhibition goes with a response far below the control. `O=C(Nc1cc(C2[C@H]3C[C@@H]4C[C@@H](C[C@H]2C4)C3)no1)Nc1cccc(Cl)c1Cl` (stereo not given in full) returned an inhibition at MAPK14 (concentration not given here) of 9%. One may read the IC50 as the midpoint of a concentration-inhibition curve. Read a low IC50 as greater potency. Consider `Cc1ccc2[nH]c(SSc3[nH]c4ccc(C)cc4c3CCC(=O)O)c(CCC(=O)O)c2c1`, for which, in the assay with EGFR (mouse) [1], the IC50 is above 50000 nM. `Cc1nc2cc3nc(-c4ccccc4)[nH]c3cc2nc1C` displayed an IC50 with EGFR (mouse) [2] above 10000 nM. `O=C(c1cccc2[nH]ccc12)N1CCC(Cc2ccccc2)CC1` came in with a 50% inhibitory concentration (IC50) against EGFR [3] above 500000 nM. Take `CO[C@H]1[C@@H](OC)C[C@H](C)[C@@H](OC)C2=CC(=O)C=C(NC(=O)/C(C)=C/C=C/[C@H](OC)[C@H](OC(N)=O)/C(C)=C/[C@@H]1C)C2=O`: the activity on CDK2 (human) [4] (1.0 µM) came to 104%; on CDK2 (human) [4] (10.0 µM), 91%; at CDK2 (human) [5] (1.0 µM), 138%; on CDK2 (human) [5] (10.0 µM), 83%. As for `CCCCCCCCCCCCCCCC(=O)OC[C@H](COP(=O)(O)O[C@H]1[C@H](O)[C@@H](O)[C@H](O)C[C@H]1O)OC(=O)CCCCCCCCCCCCCCC`, the IC50 at PIK3CA amounted to 38400 nM.

On EGFR [6], `CN1CCN(CCCNc2ncc3cc(-c4c(Cl)cccc4Cl)c(=O)n(C)c3n2)CC1` displayed an IC50 of 8700 nM. The compound `Cn1c(=O)c(-c2c(Cl)cccc2Cl)cc2cnc(Nc3cccc(Br)c3)nc21` displayed an IC50 against EGFR (human) [7] of 308 nM. Regarding `Oc1c(-c2ccc(F)cc2)c(-c2ccncc2)nn1-c1ccc(Cl)cc1`, the activity at MAPK14 (human) [8] (1.0 µM) came out at 3%; on MAPK14 (human) [8] (10.0 µM), 0%; at EGFR (human) [9] (1.0 µM), 54%; at EGFR (human) [9] (10.0 µM), 6%. On to `COc1ccc(OC)c(COc2ccc(O)c(C(=O)O)c2)c1`, for which the IC50 against EGFR [10] was above 100000 nM.

On to `Cn1ccc2cc3c(Nc4cccc(Br)c4)ncnc3cc21`, for which the IC50 against EGFR [11] was found to be 0.5 nM. `NC(=O)c1ccccc1NC(=O)Nc1ccc(Cl)c(Cl)c1` gave an IC50 on MAPK14 of 100 nM.

Broadly, the Ki is the dissociation constant of the complex between target and ligand, obtained from inhibition or displacement. Lower therefore signals a stronger hold on the target. Compound `Oc1ccc2ncnc(Nc3cccc(Br)c3)c2c1` had a Ki on EGFR (human) [12] of 0.025 nM. `CCn1c(=O)c(-c2c(Cl)cccc2Cl)cc2cnc(Nc3ccncc3)nc21`: on EGFR (human) [7], the 50% inhibitory concentration (IC50) worked out at 250 nM. With `COc1cc(O)c2c(=O)n(-c3cccc(C(=O)NC4CCCC4)c3)ccc2c1`, the IC50 at EGFR (human) [13] amounted to 1380 nM; at EGFR (human) [14], 2250 nM; on EGFR (human) [15] it was 14200 nM. On EGFR [11], `Cc1cccc(Nc2cc(Nc3cccc(N(C)C)c3OCCO)ncn2)c1` had an IC50 of 1 nM. `Cc1cc(N2CCOCC2)cc2[nH]c(-c3c(NC[C@@H](O)c4ccccc4Cl)cc[nH]c3=O)nc12` displayed a half-inhibitory concentration (IC50) against EGFR (human) [16] of 1600 nM.

With `Brc1cccc(Nc2ccnc3ccccc23)c1`, in [17], the half-inhibitory concentration (IC50) came to 5500 nM. In turn, `COC(=O)c1cc(OCc2cc(OC)ccc2OC)ccc1O` had a 50% inhibitory concentration (IC50) on EGFR [10] above 100000 nM.

On to `O=C(C=CCN1CCOCC1)Nc1ccc2ncnc(Nc3cccc(Br)c3)c2c1`, for which the IC50 on EGFR (human) [18] worked out at 74 nM; against EGFR (human) [19], 1890 nM. For the compound `Cc1cccc(COc2nc(C)n(-c3cc(-c4ccnc(C(C)(C)O)n4)ccc3C)c(=O)c2Cl)n1`, the IC50 against MAPK14 (human) [8] is 184 nM; on MAPK14 (human) [20] it was > 30000 nM and 3300 nM. The compound `COc1cc2ncnc(Nc3ccc(F)c(Cl)c3)c2cc1OCCN1CCN(C)CC1` displayed an IC50 against EGFR [21] of 10 nM. On to `COc1ccc2cnc(Nc3ccc(N4CCCCC4)cc3)nc2c1C(C)C`, for which the IC50 against CDK2 [22] worked out at 264 nM; on CDK2 [23] it was 4100 nM. On EGFR [24], `CC(C)N(CCC(=O)c1ccc2ccccc2c1)Cc1ccccc1` had an IC50 of 3130 nM. Consider `Oc1ccc2c(Nc3cccc(Br)c3)ncnc2c1`, for which the inhibitory constant (Ki) on EGFR (human) [12] was determined as 0.168 nM. Compound `COC(=O)Nc1ccc(Nc2ncnc3cc(OC)c(OC)cc23)cc1` returned a half-maximal inhibitory concentration (IC50) against EGFR (human) [25] of 6900 nM.

As to `Cc1ccc(Sc2ccc3c(-c4c(Cl)cccc4Cl)c(=O)ncn3n2)cc1`, the figures for the IC50 on MAPK14 (human) [26] and at MAPK14 (human) [27] were 870 nM and 350 nM, respectively. In turn, `Cc1cc(N2CCN(CCC#N)CC2)cc2[nH]c(-c3c(NC[C@@H](O)c4ccccc4Cl)cc[nH]c3=O)nc12` had an IC50 against EGFR (human) [16] above 10000 nM.
